The values that follow come from US5116816A, “Cyclosporin peptolides having an α-hydroxycarboxylic acid at position 8” (Sandoz Ltd., priority 1987, dated 1992).

In the test the test system is UV erythema. Briefly: UV Erythema test. The class given is in vivo, guinea pigs. The settings on record: topical solution, erythema estimated four hours after application. The protocol:
The test is carried out on female albino guinea pigs, approx. 150 g wt. The animals are shaved on both flanks using a Braun micro razor, without causing skin irritation. For each test substance five animals are subjected to a defined intensity of UV radiation for 10 seconds on each of four areas of skin (10 mm diameter). Immediately afterwards 50 microliters of a solution of the test substance in ethanol/propylene glycol/dimethylacetamide (19:19:2 v/v) is applied to two of the irradiated areas on each animal and 50 microliters of the solvent mixture to the other two as controls. Four hours after application, the degree of erythema is estimated visually.

As for `COc1ccc2c(c1)c(CC(=O)O)c(C)n2C(=O)c1ccc(Cl)cc1` [indomethacin], the “effective concentration in UV-erythema test” value is listed as 2.5%.
